Laboratory results reported in patent US6160087A, “Peptides having an amino acid sequence from the fimbrial protein of porphyromonas gingivalis and their uses” (priority 1993, dated 2000).

What was measured:
[1] = test system: anti-Porphyomonas gingivalis fimbria antibodies contained in sera of patients with periodontal disease; assay: Assay of the specific antibody in serum using plates coated with peptide-modified BSA (ELISA); type: binding, human; settings: average absorbance (405 nm) of 3 specimens, serum diluted 100 times
Protocol: One mg of each peptide synthesized in Example 2 was dissolved in 1 ml of 0.1 M phosphate buffered saline (PBS, pH 6.0), 5 mg of sulfated SMCC (made by Pierce Co.) was added, and the mixture was incubated at 30° C. for 30 minutes to conduct maleimidization, and then subjected to Sephadex G-10 column chromatography, and the first eluate fraction was collected. 7 mg of bovine serum albumin (BSA: made by Wako Pure Chemical Industries, Ltd.) was dissolved in 1 ml of 0.1 M phosphate buffer (pH 6.0), 10 mM EDTA, the solution was mixed with the above maleimidized peptide, and the mixture was subjected to reaction at 30° C. for 1 hour. The resultant peptide-modified BSA was subjected to Sephadex G-50 column chromatography, and the first eluate fraction was collected as a plate-preparing antigen solution.
Then, six kind of peptides were synthesized after the process of Example 2, and a plate-preparing antigen solution was similarly prepared as a control.
Each of the resultant antigen solutions was diluted with 0.1 M carbonate buffer (pH 9.6), 150 mM NaCl to give 100 ml of a solution. 10 μl/well of the solution was put in a polystyrene-made microtiter plate (Immunoplate II; maxisorp type; made by Nunc Co.) and left alone at 4° C. overnight, and washing was conducted three times each with 200 μl/well of PBS, using a microtiter automatic washer (hereafter abbreviated as washer; made by Bio-Rad Laboratories). 250 μl/well of PBS containing 0.1% gelatin (made by Nitta Gelatin Co., Ltd.) was added and the mixture was allowed to stand at 4° C. overnight to block the plate. The blocking solution was removed by absorption, and the plate was dried by a vacuum dryer, put in an aluminum bag, and after sealing the bag, kept at 4° C. for the following assay.
Sera of patients of periodontal disease (n=3) and normal subjects (n=3) were used as samples, and each serum was diluted 100 times with PBS containing 10% bovine serum. 100 μl portions of these dilutions were added to the plates coated with various antigens, respectively, and incubation was conducted at 37° C. for 1 hour. Each plate was washed three times with 200 μl of PBST using the washer, 100 μl of a commercially available […] (diluted 10^3 times)/0.1% Casein/PBST was added as a secondary antibody, and incubation was conducted again at 37° C. for 1 hour. The plate was washed in the same manner as above, 100 μl of an o-phenylenediamine solution was added, incubation was conducted at 37° C. for 30 minutes, 100 μl of 0.1 N sulfuric acid was added to stop the reaction, and then, absorbance (405 nm) was measured by a microplate reader (made by Bio-Rad Laboratories) using the reaction well of no addition of the specimen as a control. The measures values are average absorbances of 3 specimens each of the patient group of periodontal disease and the normal subject group.

Porphyomonas gingivalis = type: in vivo, guinea pig; settings: for inhibitory effect against infection with Porphyomonas gingivalis: guinea pig, in words; for Degree of redness Longest length × shortest length / Inhibition rate: with FCA; for Degree of redness Longest length × shortest length: 500 μg/animal, inoculation on the 28th day, 24 hours later; for Inhibition rate: relative to the FIA inoculation group
Protocol: Each peptide synthesized in Example 2 was administered together with FIA (Freund's incomplete adjuvant) or FCA (Freund's complete adjuvant), as a water-in-oil type emulsifier, into the sole of the right hind leg of a guinea pig in an amount of 500 μg/animal/time. Thereafter, on the 28th day, 200 μl of a suspension of 10^11 cells/ml of the bacterium was intracutaneously inoculated into the right flank of the same guinea pig after the hair at the region was shaved. 24 hours later, the longest length and shortest length of the resultant red coloring were measured, and the product of them was calculated. From the product was calculated the inhibition rate.

[2] = test system: fimbrial protein of Porphyomonas gingivalis; assay: Immunization of mice with the peptides: antibody titer in serum or saliva by ELISA; type: in vivo; settings: A405 value by the ELISA method, with FCA, 4 weeks later
Protocol: (§1) Each peptide synthesized in Example 2 was dissolved in PBS so as to make the concentration 200 μg/ml, the solution was mixed with the same volume of FCA, and the mixture after emulsification was subcutaneously injected into mice at the back (3 animals per group). 4 weeks later, the antibody titer in the serum or saliva against the peptide was assayed by an ELISA method.
The fimbrial protein of Porphyomonas gingivalis was adsorbed on each well of a 96-well microtiter plate for ELISA, and a dilution of the serum with PBS (1/10^5), a dilution of the saliva with PBS (1/500), or a solution obtained by adding each peptide or the fimbrial protein of Porphyomonas gingivalis is to the dilution of the serum or saliva to cause absorption was put in the well. Reaction was conducted at 37° C. for 1 hour, and then assay was conducted by a usual ELISA method.

[3] = Immunization of mice with the peptides: body weight; type: in vivo; settings: mice immunized with FCA emulsion, 3 animals per group
Protocol: as §1

[4] = test system: Porphyomonas gingivalis strain 381; assay: Inhibitory test of Porphyomonas gingivalis infection in Golden hamster with vaccine: resorption of alveolar bone; type: in vivo, Golden hamsters; settings: for degree of resorption of the alveolar bone: in words; for Absorbance of alveolar bone (average): vaccine of Example 3, induction with Porphyomonas gingivalis strain 381, 80 days
Source text: The effects of vaccine on Peptide 1 and Peptide 7 selected from the results of Test example 1, Test example 2, Test example 3, Test example 4 and Test example 5 were examined according to the following method using degree of resorption of alveolar bone and antibody titer as measures, using the vaccine described in Example 3.
(§2) 3-week-old Golden hamsters (one group consisting of 6 animals, 5 groups in total, 1 Porphyomonas gingivalis strain 381 fimbria immunity induction group, 2 Peptide 1 immunity induction group, 3 Peptide 7 immunity induction group, 4 Nonimmunity induction group, 5 Nonimmunity noninduction group) were used.
(§3) Each of the vaccines of the invention was subcutaneously administered at the oral cavity in amounts of 0.2 ml portions on the third week and the fourth week after the birth, and 0.4 ml on the fifth week.
(§4) Induction of periodontal disease was conducted by culturing Porphyomonas gingivalis strain 381 in GAM broth at 37° C. for 20 hours, collecting the cells by centrifugation, suspending the cells in phisiological saline so that the cell concentration could be 10^9 cells/ml, administering 0.2 ml portions of the suspension into the oral cavity of the Golden hamsters for 7 days starting from the sixth week after the birth, and thereafter, administering the suspension once a week.
After the start of the cell administration, the animals were allowed to freely ingest Diet 2000 (made by Funabashi Nojo) as a dental caries-inducing feed and water.
(§5) After the Golden hamsters were fed for 80 days, 1 ml/kg portions of 0.5% pilocarpine hydrochloride were intraperitoneally administered, and saliva was taken from them. Thereafter, blood was taken from the abdominal aorta of each animal, and serum was obtained therefrom. Further, a bone preparation from each hamster was produced by amputating the head, heat treating the head using an autoclave, removing the muscle part, and washing with water and drying the remaining matter.
The bone preparation was assayed for degree of resorption of the alveolar bone of a molar according to the method^f) of Tsukiyama et al. (Koku Eisei Kaishi (Jornal of Hygiene of Oral Cavity) 28, No. 3, 149, 1978).
f) The bone preparation was stained with 20% silver nitrate solution for 5 minutes, and after water washing and drying, the distance from the enamel-cement junction to the alveolar bone edge was measured by a stereoscopic microscope (magnification 15-fold).

the peptide = assay: Inhibitory test of Porphyomonas gingivalis infection in Golden hamster with vaccine: antibody titer in serum and saliva; type: in vivo, Golden hamsters; settings: for Antibody titer Saliva (1/500) / Antibody titer Serum (1/10^5): A405 value by the ELISA method; for antibody titer in the sera and saliva: in words
Protocol: as §2, §3, §4, §5
The saliva and serum were assayed for antibody titer against the peptide.

[5] = Inhibitory test of Porphyomonas gingivalis infection in Golden hamster with vaccine: body weight; type: in vivo, Golden hamsters; settings: vaccine of Example 3, subcutaneous at the oral cavity, fed for 80 days
Protocol: as §2, §3, §5

Substance | Antibody titer, Normal subject group [1] | Antibody titer, Patient group with peridontal disease [1] | inhibitory effect against infection with Porphyomonas gingivalis (Porphyomonas gingivalis) | Degree of redness Longest length × shortest length (Porphyomonas gingivalis) [mm^2] | Inhibition rate (Porphyomonas gingivalis) [%] | Antibody titer Saliva (1/500) After absorption [2] | Antibody titer Saliva (1/500) Before absorption [2] | Antibody titer Serum (1/10^5) After absorption [2] | Antibody titer Serum (1/10^5) Before absorption [2] | Body weight (Average g) [3] [g] | degree of resorption of the alveolar bone [4] | Absorbance of alveolar bone (average) [4] | Antibody titer Saliva (1/500) (the peptide) | Antibody titer Serum (1/10^5) (the peptide) | antibody titer in the sera and saliva (the peptide) | Body weight (at the time of production of bone preparation) (average g) [5] [g]
Peptide 1: synthetic peptide, epitope of the 41 kD fimbrial subunit protein of Porphyomonas gingivalis; sequence in Table 1, not shown (ENATKVEDIK) | 0.145 | 1.016 | strong inhibitory effect | 660 | 66.1 | 0.11 | 0.61 | 0.19 | 0.62 | 25 | inhibition of absoption of the alveolar bone | 48 | 0.62 | 0.65 | increse of antibody titer | 124
Peptide 7: synthetic peptide, epitope of the 41 kD fimbrial subunit protein of Porphyomonas gingivalis; sequence in Table 1, not shown (GFYVLENDYS) | 0.226 | 1.224 | strong inhibitory effect | 240 | 87.7 | 0.15 | 0.69 | 0.14 | 0.67 | 23 | inhibition of absoption of the alveolar bone | 41 | 0.79 | 0.71 | increse of antibody titer | 123
